Source: patent publication US20240174649A1, “CULLIN-RING E3 UBIQUITIN LIGASE 4 INHIBITOR COMPOUNDS AND METHODS OF THEIR USE” (ICAHN SCHOOL OF MEDICINE AT MOUNT SINAI, priority 2021, published 2024)

What was measured:
ROC1-CUL4A = ROC1-CUL4A (Homo sapiens (Human), UniProt Q13619); assay: 32P-Ub chain elongation by ROC1-CUL4A; type: biochemical; design: concentration or dose not given beside the values; details: relative to KH-4-43
Description: The reaction was incubated for 5 min at 37° C. […] The reaction was incubated for 5 min at room temperature. In the second step (chase), the completed Cdc34b-Ub thiol ester reaction mixture was combined with one third of the completed mono-ubiquitination mixture. The final volume was adjusted to 10 μl with a mix that contained 50 mM Tris-HCl (pH 7.4), 0.5 mM DTT, 0.1 mg/ml of BSA, 5 mM MgCl2, and 2 mM ATP. Compounds were added where indicated. The chase reaction was incubated for 10 min at 37° C. The reaction products were separated by 4-20% SDS-polyacrylamide gel electrophoresis. The reaction scheme was identical to the one described above for FIGS. 12A-B. […] The reaction products, separated by SDS-PAGE, were visualized and analyzed by phospho-imaging using Typhoon 9500 scanner.

ROC1-CUL4A CTD [1] = molecular target: ROC1-CUL4A CTD (Homo sapiens (Human), UniProt Q13619); assay: Ligand binding by Micro-Scale Thermophoresis (MST); details: MST
Chain of ROC1-CUL4A CTD (Homo sapiens (Human), UniProt Q13619) (Q13619 400-759): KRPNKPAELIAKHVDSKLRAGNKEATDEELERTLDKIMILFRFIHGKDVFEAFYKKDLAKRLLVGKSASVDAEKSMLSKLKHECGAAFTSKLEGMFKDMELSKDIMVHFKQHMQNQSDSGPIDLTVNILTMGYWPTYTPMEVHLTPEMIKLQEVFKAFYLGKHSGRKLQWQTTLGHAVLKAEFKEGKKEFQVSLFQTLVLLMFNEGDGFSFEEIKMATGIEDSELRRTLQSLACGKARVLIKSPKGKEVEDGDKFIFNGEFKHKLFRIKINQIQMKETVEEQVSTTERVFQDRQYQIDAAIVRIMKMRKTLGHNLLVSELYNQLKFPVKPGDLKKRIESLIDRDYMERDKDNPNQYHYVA
Description: (§1) E3 ligase complex (˜2 nmol) was labeled with fluorescent dye using Monolith NT Protein Labeling Kit Red-NHS (Nanotemper) in the presence of 20 mM MES pH 6.0 and 150 mM NaCl. Excess dye was removed using the included gravity flow column and eluted in storage buffer containing 20 mM Tris-HCl, pH 7.4, 150 mM NaCl, and 10% glycerol. The fluorescent E3 complex (˜0.01-0.06 μM) was mixed with increasing amount of compound in a buffer (20 μl) that contains phosphate-buffered saline, 0.1% TWEEN-20 and 2% prionex. Following incubation at room temperature for 30 min, the reaction mixture loaded into premium coated capillaries and analyzed in the Monolith NT.115 machine (Nanotemper). Thermophoresis was recorded for each sample and binding curve was generated and Kd was calculated using the included software. For reactions where significant ligand specific fluorescence quenching occurred (verified by manufacturer's SDS Denaturation-test protocol), the initial fluorescence quenching data was used directly to calculate the binding curve and Kd.

ROC1-CUL4A CTD [2] = assay: Ligand binding by Micro-Scale Thermophoresis (MST); design: species or system human; details: ratio of Kd
Description: as §1

ROC1-CUL2 = ROC1-CUL2 (Homo sapiens (Human), UniProt Q13617); assay: Gel-based di-Ub synthesis; type: biochemical; details: up to 150 μM
Chain of ROC1-CUL2 (Q13617 whole entry): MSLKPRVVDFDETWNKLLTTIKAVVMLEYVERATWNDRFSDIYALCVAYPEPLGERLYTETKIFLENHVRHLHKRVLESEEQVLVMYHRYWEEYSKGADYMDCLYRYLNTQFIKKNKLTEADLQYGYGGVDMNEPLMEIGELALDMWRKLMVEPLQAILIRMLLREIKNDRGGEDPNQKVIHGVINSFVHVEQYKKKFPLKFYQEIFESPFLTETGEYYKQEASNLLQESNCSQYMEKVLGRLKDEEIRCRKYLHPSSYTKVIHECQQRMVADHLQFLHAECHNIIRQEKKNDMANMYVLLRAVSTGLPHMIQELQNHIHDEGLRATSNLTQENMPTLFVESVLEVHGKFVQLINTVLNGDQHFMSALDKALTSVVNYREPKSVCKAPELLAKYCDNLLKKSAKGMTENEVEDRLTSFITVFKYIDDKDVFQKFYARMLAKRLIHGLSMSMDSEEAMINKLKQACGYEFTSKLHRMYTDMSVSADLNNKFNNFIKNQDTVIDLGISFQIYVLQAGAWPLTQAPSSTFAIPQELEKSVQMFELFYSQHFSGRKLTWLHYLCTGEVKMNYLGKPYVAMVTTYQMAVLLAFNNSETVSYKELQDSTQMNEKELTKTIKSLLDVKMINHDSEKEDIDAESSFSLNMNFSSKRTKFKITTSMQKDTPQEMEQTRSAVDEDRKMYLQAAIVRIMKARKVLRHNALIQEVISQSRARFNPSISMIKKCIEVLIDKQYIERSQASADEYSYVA
Chain of ROC1-CUL2 (P62877 whole entry partner): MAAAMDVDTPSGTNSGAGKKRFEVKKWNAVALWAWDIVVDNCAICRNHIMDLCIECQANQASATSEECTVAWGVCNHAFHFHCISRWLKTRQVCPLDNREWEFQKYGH

H1299 = assay: Apoptosis, Annexin V flow cytometry; type: cell-based; details: Homo sapiens, NCI-H1299; H1299, Lung
How it was run: (§2)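 5×10^4 cells were seeded 24 h before treatment, then cultured with compound for 48 h. Pelleted cells were washed in Annexin V binding buffer (HEPES pH 7.4, with CaCl2) and stained in the dark with Annexin V-FITC (2 μg/ml) for 5 min. Apoptosis was read by flow cytometry.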

HCT116 = assay: Apoptosis, Annexin V flow cytometry; type: cell-based; details: Homo sapiens, HCT-116; HCT116, Colon
How it was run: as §2

K562 = assay: Apoptosis, Annexin V flow cytometry; type: cell-based; details: Homo sapiens; K562, CML
How it was run: as §2

MDA-MB-231 = assay: Apoptosis, Annexin V flow cytometry; type: cell-based; details: Homo sapiens; MDA-MB-231, Breast
How it was run: as §2

ML-2 = assay: Apoptosis, Annexin V flow cytometry; type: cell-based; details: Homo sapiens; ML-2, AML
How it was run: as §2

MOLT-4 = assay: Apoptosis, Annexin V flow cytometry; type: cell-based; details: Homo sapiens; MOLT-4, ALL
How it was run: as §2

MV4-11 = assay: Apoptosis, Annexin V flow cytometry; type: cell-based; details: Homo sapiens; MV4-11, AML
How it was run: as §2

NB-4 = assay: Apoptosis, Annexin V flow cytometry; type: cell-based; details: Homo sapiens; NB-4, AML
How it was run: as §2

THP-1 = assay: Apoptosis, Annexin V flow cytometry; type: cell-based; details: Homo sapiens, THP-1, THP-1, AML
How it was run: as §2

U2OS = assay: Apoptosis, Annexin V flow cytometry; type: cell-based; details: Homo sapiens, Bone
How it was run: as §2

Kinetic solubility = type: physicochemical; details: pH 7.4
Description: (§3) ADME studies on compounds #33-11 and KH-4-43 for “absorption, distribution, metabolism, and excretion” were carried out at CRO, BioDuro. Kinetic solubility, plasma and microsome stability in rat, mouse and human, as well as Caco-2 Permeability were examined.

[3] = Mouse tolerance/toxicity study
E3 (CUL1) = E3 (CUL1) (Homo sapiens (Human), UniProt Q13616); assay: E3 (CUL1) inhibition (Table 1); type: biochemical
Chain of E3 (CUL1) (Q13616 whole entry): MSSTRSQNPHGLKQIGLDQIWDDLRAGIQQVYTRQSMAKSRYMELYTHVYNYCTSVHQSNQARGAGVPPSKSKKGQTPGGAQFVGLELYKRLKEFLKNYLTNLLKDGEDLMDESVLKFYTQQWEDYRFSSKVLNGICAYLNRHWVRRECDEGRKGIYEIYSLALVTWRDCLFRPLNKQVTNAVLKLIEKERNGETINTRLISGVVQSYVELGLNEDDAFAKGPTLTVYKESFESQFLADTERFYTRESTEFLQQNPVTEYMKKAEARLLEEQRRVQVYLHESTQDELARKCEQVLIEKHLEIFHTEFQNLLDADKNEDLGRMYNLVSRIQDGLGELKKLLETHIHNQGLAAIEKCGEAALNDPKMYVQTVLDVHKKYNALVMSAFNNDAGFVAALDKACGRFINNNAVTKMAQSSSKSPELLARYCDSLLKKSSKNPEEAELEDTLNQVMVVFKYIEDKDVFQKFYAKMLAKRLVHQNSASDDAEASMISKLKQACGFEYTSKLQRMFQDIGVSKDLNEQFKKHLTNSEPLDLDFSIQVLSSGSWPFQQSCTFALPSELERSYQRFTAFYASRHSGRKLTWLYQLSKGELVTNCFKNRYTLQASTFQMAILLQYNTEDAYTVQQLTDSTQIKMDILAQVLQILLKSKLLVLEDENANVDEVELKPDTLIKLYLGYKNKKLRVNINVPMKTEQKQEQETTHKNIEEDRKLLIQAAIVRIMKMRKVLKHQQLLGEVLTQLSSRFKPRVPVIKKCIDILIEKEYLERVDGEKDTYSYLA
Chain of E3 (CUL1) (P62877 whole entry partner): as the sequence (P62877 whole entry partner) above
Description: The reaction mixture (15 μl) was assembled onto a 384-well microtiter plate. […] ATP (0.66 mM) was then added to the mix followed by a brief centrifugation to settle down the mixture. The resulting plate was incubated at 30° C. in the Synergy-H1 reader and the fluorescence signal was monitored. Ubiquitination was quantified based on the ratio of acceptor:donor fluorescence (excitation 515 nm; donor emission 570 nm, acceptor emission 670 nm).

tumor cell lines = assay: Cytotoxicity in a subset of tumor cell lines; type: cell-based
Description: Cells (5×10^4) were seeded 24 hours before compound treatment. Compound was added to the culture media and cells were cultured with the compound for 48 hours. The treated cells were then transferred into 5 ml flow cytometry tubes and the well was washed once with PBS to collect any remaining cells. The cells were then pelleted at 500×g for 5 min with a Beckman CS-6KR centrifuge at 4° C. After removal of supernatant, the cells pellet was washed with Annexin V binding buffer (10 mM Hepes-NaOH, pH 7.4, 150 mM NaCl, 5 mM KCl, 1 mM MgCl2, and 1.8 mM CaCl2). Cells were pelleted once again and incubated in the dark with Annexin V-FITC (2 μg/ml) in binding buffer for 5 min then analyzed using LSRFortessa flow cytometer (BD).
For cell viability assay, 10,000 cells (per well) were seeded in 96 well plates in 100 microliters of media and incubated overnight. Serial dilutions of compounds tested were then added to wells in triplicate. The cells were incubated for an additional 48 hours. […] The luminescence of each well was then read using a Synergy multi-mode plate reader (BioTek). For determining relative luminescence, the background (average reading of wells containing only media and CellTiter-Glo reagent, no cells) was first subtracted from the reading of each sample. […] Then EC50 was determined using the four parameter logistics regression standard curve.

[4] = Liver microsome stability; type: in vitro ADME
Description: as §3

[5] = In vitro stability in mouse, rat and human microsomes; type: in vitro ADME
Description: as §3

Chain of ROC1-CUL4A (Q13619 39-759): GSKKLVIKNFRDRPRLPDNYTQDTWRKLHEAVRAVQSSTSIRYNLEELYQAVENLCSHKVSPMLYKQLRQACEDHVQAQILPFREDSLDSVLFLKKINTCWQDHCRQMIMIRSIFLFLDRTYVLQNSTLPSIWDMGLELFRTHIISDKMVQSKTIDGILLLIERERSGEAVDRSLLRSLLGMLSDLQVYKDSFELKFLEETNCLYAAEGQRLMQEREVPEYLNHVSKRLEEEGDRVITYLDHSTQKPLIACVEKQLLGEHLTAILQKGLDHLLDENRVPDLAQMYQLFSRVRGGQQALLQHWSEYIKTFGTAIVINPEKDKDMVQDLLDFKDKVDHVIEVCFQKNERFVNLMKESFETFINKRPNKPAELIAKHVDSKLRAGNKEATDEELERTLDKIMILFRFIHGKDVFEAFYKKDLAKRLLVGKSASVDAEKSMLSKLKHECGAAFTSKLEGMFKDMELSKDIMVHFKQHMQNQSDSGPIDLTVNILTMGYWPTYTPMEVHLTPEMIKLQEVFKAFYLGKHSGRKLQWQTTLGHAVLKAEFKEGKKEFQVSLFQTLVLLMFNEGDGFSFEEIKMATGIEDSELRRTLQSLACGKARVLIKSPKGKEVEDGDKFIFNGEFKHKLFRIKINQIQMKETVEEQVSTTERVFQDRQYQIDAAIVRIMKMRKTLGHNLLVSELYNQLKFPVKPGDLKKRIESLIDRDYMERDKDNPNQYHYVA
Chain of ROC1-CUL4A (P62877 15-108 partner): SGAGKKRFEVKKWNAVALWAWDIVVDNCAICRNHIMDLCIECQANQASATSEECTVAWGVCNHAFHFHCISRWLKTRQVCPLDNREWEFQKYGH

O=c1c(-c2cnn(-c3ccccc3)c2)c(C(F)(F)F)oc2c(O)c(O)ccc12 [#33-11, 7,8-dihydroxy-3-(1-phenyl-1H-pyrazol-4-yl)-2-(trifluoromethyl)-4H-chromen-4-one]
E3 CRL4 Relative Inhibition (ROC1-CUL4A): 37%
Kd (ROC1-CUL4A CTD [1]): 0.223 µM
binding to ROC1-CUL4A CTD more effectively than ROC1-CUL1 CTD (ROC1-CUL4A CTD [2]): ~20 fold
level of di-Ub product (ROC1-CUL2): remained almost unchanged
EC50 (H1299): ~81 µM
EC50 (HCT116): ~58 µM
EC50 (K562): ~54 µM
EC50 (MDA-MB-231): > 100 µM
EC50 (ML-2): ~14 µM
EC50 (MOLT-4): ~5 µM
EC50 (MV4-11): ~13 µM
EC50 (NB-4): ~7 µM
EC50 (THP-1): 14 µM
EC50 (U2OS): ~78 µM
Kinetic solubility, rating (Kinetic solubility): moderate solubility
necropsy findings ([3]; 50 mg/kg): no adverse effects
body weight loss ([3]; 50 mg/kg IP daily, 7 days): no significant body weight loss

O=c1c(-c2cnn(-c3ccc(Cl)cc3)c2)c(C(F)(F)F)oc2c(O)c(O)ccc12 [KH-4-43, 3-(1-(4-chlorophenyl)-1H-pyrazol-4-yl)-7,8-dihydroxy-2-(trifluoromethyl)-4H-chromen-4-one]
EC50 (E3 (CUL1)): 7 µM
EC50 (tumor cell lines): ~2 µM
Liver microsomes: t1/2 ([4]; Human): >8.33 h
Liver microsomes: t1/2 ([4]; Rat): >8.33 h
half-life [5]: > 5 h
